Assay results published in US6486196B2, “Anticancer compounds: process for their preparation and pharmaceutical compositions containing them” (Dr. Reddy's Research Foundation, priority 2000, dated 2002).

Experiments:
PA1 = assay: Sulforhodamine B growth inhibition, ovarian PA1; format: cell-based, human; conditions: 48 h, SRB, read-out: GROWTH INHIBITION (GI 50)
Experimental: (§1) Each test compound was screened against a battery of cell lines representing eight different types of cancers. In a typical procedure, 1×10^4 cells were seeded into each well of 96 well plate in 100 μL volume of RPMI 1640 medium containing antibiotics and 10% FCS.
(§2) The plates were incubated at 37° C. in presence of CO2. After 24 h, test compounds were evaluated at five 10 fold dilutions ranging from 100 to 0.01 μM. To each test well 100 μL of test compound solution was added and medium with vehicle was added to control wells and the plates were further incubated. After 48 h of incubation, plates were terminated by Sulforhodamine B method.
(§3) The optical density which is proportional to protein mass, is then read by automated spectrophotometric plate reader at a wavelength of 515 nm.

HT29 = assay: Sulforhodamine B growth inhibition, colon HT29; format: cell-based, human; conditions: 48 h, SRB, read-out: GROWTH INHIBITION (GI 50)
Experimental: as §1, §2, §3

Human lymphocytes = assay: Lymphocyte proliferation (tritiated thymidine incorporation); format: cell-based; conditions: 1 μM; human lymphocytes with Phytohemagglutitin A
Experimental: Human lymphocytes were isolated from whole blood by using Ficoll Hypaque Plus (Amersham). On day one, 1 million lymphocytes were seeded into each well of 96 well plate in 100 μL volume of RPMI 1640 medium containing 10% FCS and Phytohemagglutitin A at 1 μg/well concentration. Plates were incubated at 37° C. in CO2 incubator for 24 h. Test compounds at various concentrations were added to test wells and only medium with vehicle was added to control wells. After 48 h of incubation […] of tritiated thymidine was added to each well. After 24 h of thymidine addition the cells were harvested and the incorporated radioactivity was determined.
Stimulation Index (SI) was calculated using the formula, […]

UACC62 = assay: Sulforhodamine B growth inhibition, melanoma UACC62; format: cell-based, human; conditions: 48 h, SRB, read-out: GROWTH INHIBITION (GI 50)
Experimental: as §1, §2, §3

A498 = assay: Sulforhodamine B growth inhibition, renal A498; format: cell-based, human; conditions: 48 h, SRB, read-out: GROWTH INHIBITION (GI 50)
Experimental: as §1, §2, §3

H522 = assay: Sulforhodamine B growth inhibition, lung H522; format: cell-based, human; conditions: 48 h, SRB, read-out: GROWTH INHIBITION (GI 50)
Experimental: as §1, §2, §3

C57BL/KsJ-db/db mice = assay: Blood sugar and triglycerides lowering in db/db mice; format: in vivo; conditions: 100 mg/kg oral gavage daily for 6 days, plasma
Text: Mutution in colonies of laboratory animals and different sensitivities to dietary regimens have made the development of animal models with non-insulin dependent diabetes and hyperlipidemia associated with obesity and insulin resistance possible. Genetic models such as db/db mice have been developed by the various laboratories for understanding the pathophysiology of disease and testing the efficacy of new antidiabetic compounds (Diabetes, (1983) 32: 830-838; Annu. Rep. Sankyo Res. Lab. (1994) 46:1-57). The homozygous animals, C57 BL/KsJ-db/db mice developed by Jackson Laboratory, US, are obese, hyperglycemic, hyperinsulinemic and insulin resistant (J. Clin, Invest., (1990) 85: 962-967), whereas heterozygous are lean and normoglycemic. […]
The random blood sugar and triglyceride levels were measured by collecting blood (100 μl) through orbital sinus, using heparinised capillary in tubes containing EDTA which was centrifuged to obtain plasma. The plasma glucose and triglyceride levels were measured spectrometrically, by glucose oxidase and glycerol-3-PO4 oxidase/peroxidase enzyme (Dr. Reddy's Lab. Diagnostic Division Kits, Hyderabad, India) methods respectively.
The blood sugar and triglycerides lowering activities of the test compound was calculated according to the formula: [formula]
Body weight of the animals were measured at the beginning and at the end of the study period.

U251 = assay: Sulforhodamine B growth inhibition, CNS U251; format: cell-based, human; conditions: 48 h, SRB, read-out: GROWTH INHIBITION (GI 50)
Experimental: as §1, §2, §3

MCF7 = assay: Sulforhodamine B growth inhibition, breast MCF7; format: cell-based, human; conditions: 48 h, SRB, read-out: GROWTH INHIBITION (GI 50)
Experimental: as §1, §2, §3

DU145 = assay: Sulforhodamine B growth inhibition, prostate DU145; format: cell-based, human; conditions: 48 h, SRB, read-out: GROWTH INHIBITION (GI 50)
Experimental: as §1, §2, §3

HIV-1/MN = assay: Anti HIV activity in PM-1 cells (P24 ELISA, MTT corrected); format: cell-based; conditions: 1 μM; PM-1 cells infected with HIV-1/MN, 96 h, P24 antigen corrected by MTT
Experimental: Human CD^4+ T cell line PM-1 used in the assay was cultured in RPMI-1640 medium containing 10% Fetal bovine serum, 2 g/L sodium bicarbonate, 100,000 units/L Pencillin-G and 100 mg/L streptomycin. Healthy PM-1 cells were plated on the first day in a 96 well plate at 2×10^6 cells per well. After 24 h HIV-1/MN was added to the culture and incubated for 2 h for infection. Cells were washed twice with PBS to remove the virus in the culture. Different concentrations of DRF compounds ranging from 10−^4 to 10^−8 M were added to the culture and incubated for 96 h. The viability of cells was then assessed by standard MTT assay and the viral antigen P24 levels were estimated by ELISA method. Based on the MTT assay values the P 24 antigen values were corrected.
All the samples were tested in triplicates and the average was used for calculations. AZT was used as standard compound for comparision.

MCF-7/ADR = assay: Sulforhodamine B growth inhibition, breast MCF-7/ADR; format: cell-based, human; conditions: 48 h, SRB, read-out: GROWTH INHIBITION (GI 50)
Experimental: as §1, §2, §3

SW-620 = assay: Sulforhodamine B growth inhibition, colon SW-620; format: cell-based, human; conditions: 48 h, SRB, read-out: GROWTH INHIBITION (GI 50)
Experimental: as §1, §2, §3

Swiss albino mice = assay: Plasma triglyceride and body weight reduction in Swiss albino mice; format: in vivo
Experimental: Male Swiss albino mice (SAM) were obtained from NIN and housed in DRF animal house. All these animals were maintained under 12 hour light and dark cycle at 25±1° C. Animals were given standard laboratory chow (NIN, Hyderabad, India) and water, ad libitum. SAM of 20-25 g body weight range (Oliver, P., Plancke, M. O., Marzin, D., Clavey, V., Sauzieres, J and Fruchart, J. C. Effects of fenofibrate, gemfibrozil and nicotinic acid on plasma lipoprotein levels in normal and hyperlipidemic mice. Atherosclerosis. 1988. 70: 107-114)
The test compounds were administered orally to Swiss albino mice at 30 to 500 mg/kg/day dose for 6 days. Control mice were treated with vehicle (Chremophore/DMSO/H2O; dose 10 ml/kg).
The blood samples were collected in fed state 1 hour after drug administration on 0 and 6 day of treatment. The blood was collected from the retro-orbital sinus through heparinised capillary in EDTA containing tubes. After centrifugation, plasma sample was separated for triglyceride (Wieland, 0. Methods of Enzymatic analysis, Bergerneyer, H. O., Ed., 1963. 211-214; Trinder, P. Ann. Clin. Biochem. 1969. 6: 24-27). Measurement of plasma triglycerides was done using commercial kits (Dr. Reddy's Diagnostic Division, Hyderabad, India).
The formula used to measure percent reduction in blood sugar/triglycerides is given above.

SKOV-3 = assay: Sulforhodamine B growth inhibition, ovarian SKOV-3; format: cell-based, human; conditions: 48 h, SRB, read-out: GROWTH INHIBITION (GI 50)
Experimental: as §1, §2, §3

PC-3 = assay: Sulforhodamine B growth inhibition, prostate PC-3; format: cell-based, human; conditions: 48 h, SRB, read-out: GROWTH INHIBITION (GI 50)
Experimental: as §1, §2, §3

C=C1CC[C@@H]2[C@](C)(COC(C)=O)[C@H](OC(C)=O)CC[C@@]2(C)[C@@H]1C/C=C1/C(=O)OC[C@H]1OC(=O)C(OC(C)=O)C(NC(C)=O)c1ccccc1 (stereo partly drawn) [Example 16, 3,19-Diacetyl-14-(2′-acetyl 3′-acetamido 3′-phenyl)propionyl andrographolide]
GI50 (PA1): 2 µM
GI50 (HT29): 6.5 µM
Stimulation Index (SI) (Human lymphocytes): 90
GI50 (UACC62): 3 µM
GI50 (A498): 9 µM
GI50 (H522): 6 µM
Percentage reduction Glucose (C57BL/KsJ-db/db mice): 64%
Percentage reduction TG (C57BL/KsJ-db/db mice): 54%
GI50 (U251): 4 µM
GI50 (MCF7): 5 µM
GI50 (DU145): 6.5 µM
Percentage Inhibition (HIV-1/MN): 61.06%
GI50 (MCF-7/ADR): 5.5 µM
GI50 (SW-620): 6 µM
Percentage reduction Body weight (Swiss albino mice; 100 mg/kg orally for 6 days): 9%
Percentage reduction TG (Swiss albino mice; 100 mg/kg orally for 6 days): 42%
Percentage reduction Body weight (Swiss albino mice; 250 mg/kg orally for 6 days): 15%
Percentage reduction Body weight (Swiss albino mice; 500 mg/kg orally for 6 days): 23%
Percentage reduction TG (Swiss albino mice; 500 mg/kg orally for 6 days): 62%
GI50 (SKOV-3): 4 µM
GI50 (PC-3): 6.5 µM
